In brackets after ≈: the same amount, converted by molar mass.
Tests used:
physchem = conditions: for solubility: oil or lipid
Experimental: After combining of pre-weighed amounts of components they were gently triturated at room temperature (20-22° C.) using a stainless steel spatula until liquid phase is formed.

PTZ induced seizures = experiment: Timed intravenous PTZ infusion test (ivPTZ); assay type: in vivo, mice; conditions: Lorazepam 2.5 mg/kg (Graph 5)
Text: For investigation of anti-seizure activity of invented formulations, a timed intravenous PTZ infusion test was employed.
The technique of timed i.v. PTZ (pentylenetetrazole) infusion test (ivPTZ) is a simple, reproducible and fast method for assessment of onset, peak, duration and potency of various anticonvulsants and proconvulsants in animals. This test provides an extremely sensitive parametric method for assessing seizure threshold in individual animals and a quantifiable endpoint can be obtained with a minimal number of animals. Different seizure types can be chosen as endpoint in this test. Usually, the first seizure occurring during the PTZ infusion is a myoclonic twitch, followed by clonic and, later, tonic seizures. […]
During the infusion, mice are observed for the onset of different types of seizures. The time latencies from the start of infusion to the appearance of the first clonus (characterized by rapid involuntary rhythmic contraction and relaxation of limbs), lasting longer than 5 seconds, are recorded. […]
The infusion of PTZ will be terminated at 2 min, in case of non-appearance of clonic seizures. For such animals, the dose of PTZ in mg/kg infused during the course of 2 min is calculated as the threshold dose.
The threshold doses of PTZ producing clonic seizures are calculated (in mg/kg) using the following formula: […]

[1] = Water solubility of Lorazepam in saline; conditions: saline or isotonic
[2] = intranasal, human patients, anti-seizure activity; cited from earlier work

| Structure (SMILES) | solubility (physchem; Lorazepam solubility in MCT with 5% Menthol, MCT oil + 5% Menthol by weight) | solubility (physchem; Lorazepam solubility in MCT with 8% Menthol, MCT oil + 8% Menthol) | solubility (physchem; Solubility in capric/caprylic triglycerides (MCT oil), pure MCT oil, RT) | solubility (physchem; Solubility of Lorazepam in peppermint oil, peppermint oil containing about 45% of menthol) | Increase of Lorazepam solubility, MCT with 5% Menthol (physchem; versus pure MCT oil) | Increase of Lorazepam solubility, MCT with 8% Menthol (physchem; versus pure MCT oil) | Time to maximal protection (PTZ induced seizures) | solubility [1] | Onset of action [2] |
| --- | --- | --- | --- | --- | --- | --- | --- | --- | --- |
| O=C1Nc2ccc(Cl)cc2C(c2ccccc2Cl)=NC1O (stereo not drawn) [Lorazepam] | 5500 µg/mL | 6800 µg/mL | 4300 µg/mL (≈ 13.4 mM) | 38900 µg/mL (≈ 121 mM) | 28% | ~60% | approximately 5 minutes | ~27 µg/mL (≈ 0.0841 mM) | – |
| Cc1ncc2n1-c1ccc(Cl)cc1C(c1ccccc1F)=NC2 [Midazolam] | – | – | – | – | – | – | – | – | approximately 10 minutes |

Source: patent US20160000702A1, “PHARMACEUTICAL COMPOSITION FOR ENHANCED TRANSMUCOSAL ADMINSTRATION OF BENZODIAZEPINES” (EASTGATE PHARMACEUTICALS INC., priority 2013, published 2016)
